Laboratory results as given in ChEMBL document CHEMBL1130943, “Novel inhibitors of alpha 4 beta 1 integrin receptor interactions through library synthesis and screening” (Bioorg Med Chem Lett, 1998).

What was measured:
Format in all cases: protein-complex assay
[1] = target: T1, Integrin alpha-4/beta-1 (Homo sapiens, UniProt P05556+P13612); assay: Inhibition of alpha4-beta1 integrin connecting segment 1 (CS1) splice variant binding interaction
Target sequence in this assay (P05556 21-798 limits assumed, change not shown): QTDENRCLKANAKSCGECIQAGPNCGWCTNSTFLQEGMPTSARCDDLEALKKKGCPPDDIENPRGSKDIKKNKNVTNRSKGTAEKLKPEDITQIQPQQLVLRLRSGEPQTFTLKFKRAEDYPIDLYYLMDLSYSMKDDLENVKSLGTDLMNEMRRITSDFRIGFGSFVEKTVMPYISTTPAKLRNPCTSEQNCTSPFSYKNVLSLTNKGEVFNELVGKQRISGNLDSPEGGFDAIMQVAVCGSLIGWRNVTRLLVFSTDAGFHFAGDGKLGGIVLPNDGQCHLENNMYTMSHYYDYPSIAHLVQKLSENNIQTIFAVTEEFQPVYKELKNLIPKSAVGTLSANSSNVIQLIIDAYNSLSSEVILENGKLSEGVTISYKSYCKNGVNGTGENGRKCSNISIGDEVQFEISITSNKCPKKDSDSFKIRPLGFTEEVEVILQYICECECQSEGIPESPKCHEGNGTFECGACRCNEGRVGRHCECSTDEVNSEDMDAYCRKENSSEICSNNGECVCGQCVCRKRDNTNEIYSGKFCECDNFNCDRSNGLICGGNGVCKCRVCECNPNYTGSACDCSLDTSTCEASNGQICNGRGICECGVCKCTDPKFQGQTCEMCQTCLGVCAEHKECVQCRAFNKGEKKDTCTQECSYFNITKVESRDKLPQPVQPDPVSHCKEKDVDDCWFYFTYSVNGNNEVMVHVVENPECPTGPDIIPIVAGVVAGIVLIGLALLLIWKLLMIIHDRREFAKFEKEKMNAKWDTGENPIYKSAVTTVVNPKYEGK
Target sequence in this assay (P13612 34-1032 limits assumed, change not shown): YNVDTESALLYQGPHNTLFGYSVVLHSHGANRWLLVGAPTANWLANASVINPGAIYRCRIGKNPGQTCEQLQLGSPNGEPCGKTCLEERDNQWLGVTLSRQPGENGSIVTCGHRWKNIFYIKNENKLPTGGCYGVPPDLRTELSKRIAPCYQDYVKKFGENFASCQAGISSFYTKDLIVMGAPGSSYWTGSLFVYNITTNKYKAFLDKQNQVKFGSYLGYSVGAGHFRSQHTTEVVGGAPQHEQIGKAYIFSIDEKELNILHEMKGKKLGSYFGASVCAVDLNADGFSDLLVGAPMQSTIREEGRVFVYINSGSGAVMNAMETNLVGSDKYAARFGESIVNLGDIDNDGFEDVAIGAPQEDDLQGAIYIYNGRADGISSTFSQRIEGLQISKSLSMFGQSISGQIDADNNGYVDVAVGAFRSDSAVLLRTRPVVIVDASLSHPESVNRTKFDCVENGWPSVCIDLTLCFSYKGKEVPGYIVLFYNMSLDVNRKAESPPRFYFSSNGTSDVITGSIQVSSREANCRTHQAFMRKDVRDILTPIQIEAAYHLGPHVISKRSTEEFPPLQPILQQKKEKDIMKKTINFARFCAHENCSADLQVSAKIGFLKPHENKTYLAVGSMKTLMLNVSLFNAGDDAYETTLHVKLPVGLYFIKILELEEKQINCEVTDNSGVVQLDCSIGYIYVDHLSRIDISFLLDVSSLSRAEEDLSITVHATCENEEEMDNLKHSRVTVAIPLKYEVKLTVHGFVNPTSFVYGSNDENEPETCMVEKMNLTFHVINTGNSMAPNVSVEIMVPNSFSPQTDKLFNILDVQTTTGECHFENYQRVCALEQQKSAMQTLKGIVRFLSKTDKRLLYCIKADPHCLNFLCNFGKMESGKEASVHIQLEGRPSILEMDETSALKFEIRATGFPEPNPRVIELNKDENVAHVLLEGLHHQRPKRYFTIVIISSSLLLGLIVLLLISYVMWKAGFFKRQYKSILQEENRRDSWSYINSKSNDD

[2] = target: T1, Integrin alpha-4/beta-1; assay: Inhibition of alpha4-beta1 integrin connecting segment 1 (CS1) splice variant binding interaction at 100 uM
[3] = target: T1, Integrin alpha-4/beta-1; assay: Inhibition of alpha4-beta1 integrin connecting segment 1 (CS1) splice variant binding interaction 100 uM

Row | IC50 [1] [µM] | inhibition [2] [%] | inhibition [3] [%] | SMILES
1 | 5 | 100 | – | O=C(O)CCN1CCS[C@H](CC(=O)O)C(=O)N[C@@H](Cc2ccc(O)cc2)C1=O
2 | 8 | – | 100 | O=C(O)CCN1CCS[C@@H](CC(=O)O)C(=O)N[C@@H](Cc2ccc(O)cc2)C1=O
3 | > 100 | 41 | – | CCCCN1CCS[C@@H](CC(=O)O)C(=O)N[C@@H](Cc2ccccc2)C1=O
4 | > 100 | 0 | – | CC(C)CCN1CCS[C@@H](CC(=O)O)C(=O)N[C@@H](Cc2ccccc2)C1=O
